Measured values taken from the supplement of paper PMC10307832.

Tests used:
Test in all cases: relative viability (nuclei count vs DMSO), 5 days (fraction); higher = more cells survive
Bosutinib = compound: COc1cc(Nc2c(C#N)cnc3cc(OCCCN4CCN(C)CC4)c(OC)cc23)c(Cl)cc1Cl [Bosutinib]
How it was run: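 Five library-drug doses, separated by factors of √10, were pinned into 1536-well plates holding lung cancer cell lines after an overnight stay at 37 °C. Cells were fixed, permeabilised and Hoechst-stained in one step after 5 days without medium change, then imaged at 4×. Viability compares treated-well with vehicle-well nuclei, counted in MetaXpress, as a median across plates. Passing plates had control CV below 25% and at least one doubling.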

Bosutinib + Trametinib = compound: COc1cc(Nc2c(C#N)cnc3cc(OCCCN4CCN(C)CC4)c(OC)cc23)c(Cl)cc1Cl [Bosutinib] + CC(=O)Nc1cccc(-n2c(=O)n(C3CC3)c(=O)c3c(Nc4ccc(I)cc4F)n(C)c(=O)c(C)c32)c1 [Trametinib] (partner 0.02 µM)
How it was run: (§1)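 Nuclei were stained with Hoechst during a one-step fixation (final 0.05% Triton X-100, 1% formaldehyde, 1 ug/ml Hoechst) carried out 5 days after dosing, then counted on 4× images. The cells, lung cancer lines in 1536-well plates, had been dosed by pin tool the day after seeding with one drug alone or a fixed anchor-drug dose plus five library-drug doses (not always all listed) in √10 steps. Relative viability is the nuclei count in treated wells divided by that in vehicle wells, and each value is the median of duplicate plates.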

Bosutinib + Palbociclib = compound: COc1cc(Nc2c(C#N)cnc3cc(OCCCN4CCN(C)CC4)c(OC)cc23)c(Cl)cc1Cl [Bosutinib] + CC(=O)c1c(C)c2cnc(Nc3ccc(N4CCNCC4)cn3)nc2n(C2CCCC2)c1=O [Palbociclib] (partner 0.5 µM)
How it was run: as §1

Bosutinib + Luminespib = compound: COc1cc(Nc2c(C#N)cnc3cc(OCCCN4CCN(C)CC4)c(OC)cc23)c(Cl)cc1Cl [Bosutinib] + CCNC(=O)c1noc(-c2cc(C(C)C)c(O)cc2O)c1-c1ccc(CN2CCOCC2)cc1 [Luminespib] (partner 0.01 µM)
How it was run: as §1

Bosutinib + Foretinib = compound: COc1cc(Nc2c(C#N)cnc3cc(OCCCN4CCN(C)CC4)c(OC)cc23)c(Cl)cc1Cl [Bosutinib] + COc1cc2c(Oc3ccc(NC(=O)C4(C(=O)Nc5ccc(F)cc5)CC4)cc3F)ccnc2cc1OCCCN1CCOCC1 [Foretinib] (partner 0.25 µM)
How it was run: as §1

Bosutinib + OSI-027 = compound: COc1cc(Nc2c(C#N)cnc3cc(OCCCN4CCN(C)CC4)c(OC)cc23)c(Cl)cc1Cl [Bosutinib] + COc1cccc2cc(-c3nc([C@H]4CC[C@H](C(=O)O)CC4)n4ncnc(N)c34)[nH]c12 [OSI-027] (partner 0.5 µM)
How it was run: as §1

Bosutinib + Tozasertib = compound: COc1cc(Nc2c(C#N)cnc3cc(OCCCN4CCN(C)CC4)c(OC)cc23)c(Cl)cc1Cl [Bosutinib] + Cc1cc(Nc2cc(N3CCN(C)CC3)nc(Sc3ccc(NC(=O)C4CC4)cc3)n2)n[nH]1 [Tozasertib] (partner 0.1 µM)
How it was run: as §1

Bosutinib + Dasatinib = compound: COc1cc(Nc2c(C#N)cnc3cc(OCCCN4CCN(C)CC4)c(OC)cc23)c(Cl)cc1Cl [Bosutinib] + Cc1nc(Nc2ncc(C(=O)Nc3c(C)cccc3Cl)s2)cc(N2CCN(CCO)CC2)n1 [Dasatinib] (partner 0.075 µM)
How it was run: as §1

Bosutinib + Phenformin = compound: COc1cc(Nc2c(C#N)cnc3cc(OCCCN4CCN(C)CC4)c(OC)cc23)c(Cl)cc1Cl [Bosutinib] + N=C(N)NC(=N)NCCc1ccccc1 [Phenformin] (partner 250 µM)
How it was run: as §1

Bosutinib + AZD7762 = compound: COc1cc(Nc2c(C#N)cnc3cc(OCCCN4CCN(C)CC4)c(OC)cc23)c(Cl)cc1Cl [Bosutinib] + NC(=O)Nc1cc(-c2cccc(F)c2)sc1C(=O)N[C@H]1CCCNC1 [AZD7762] (partner 0.2 µM)
How it was run: as §1

Bosutinib + Pemetrexed = compound: COc1cc(Nc2c(C#N)cnc3cc(OCCCN4CCN(C)CC4)c(OC)cc23)c(Cl)cc1Cl [Bosutinib] + Nc1nc2[nH]cc(CCc3ccc(C(=O)N[C@@H](CCC(=O)O)C(=O)O)cc3)c2c(=O)[nH]1 [Pemetrexed] (partner 0.2 µM)
How it was run: as §1

Bosutinib + Decitabine = compound: COc1cc(Nc2c(C#N)cnc3cc(OCCCN4CCN(C)CC4)c(OC)cc23)c(Cl)cc1Cl [Bosutinib] + Nc1ncn([C@H]2C[C@H](O)[C@@H](CO)O2)c(=O)n1 [Decitabine] (partner 2 µM)
How it was run: as §1

Bosutinib + Vorinostat = compound: COc1cc(Nc2c(C#N)cnc3cc(OCCCN4CCN(C)CC4)c(OC)cc23)c(Cl)cc1Cl [Bosutinib] + O=C(CCCCCCC(=O)Nc1ccccc1)NO [Vorinostat] (partner 1 µM)
How it was run: as §1

Bosutinib + Olaparib = compound: COc1cc(Nc2c(C#N)cnc3cc(OCCCN4CCN(C)CC4)c(OC)cc23)c(Cl)cc1Cl [Bosutinib] + O=C(c1cc(Cc2n[nH]c(=O)c3ccccc23)ccc1F)N1CCN(C(=O)C2CC2)CC1 [Olaparib] (partner 8 µM)
How it was run: as §1

Cell Line: NCI-H2342
- relative viability (Bosutinib; 0.01 µM): 0.961
- relative viability (Bosutinib; 0.03162 µM): 0.99
- relative viability (Bosutinib; 0.1 µM): 0.926
- relative viability (Bosutinib; 1 µM): 1.21
- relative viability (Bosutinib + Trametinib; first compound 0.01 µM): 0.706
- relative viability (Bosutinib + Trametinib; first compound 0.03162 µM): 0.703
- relative viability (Bosutinib + Trametinib; first compound 0.1 µM): 0.856
- relative viability (Bosutinib + Trametinib; first compound 1 µM): 1.1
- relative viability (Bosutinib + Palbociclib; first compound 0.01 µM): 0.539
- relative viability (Bosutinib + Palbociclib; first compound 0.03162 µM): 0.508
- relative viability (Bosutinib + Palbociclib; first compound 0.1 µM): 0.545
- relative viability (Bosutinib + Palbociclib; first compound 1 µM): 0.579
- relative viability (Bosutinib + Luminespib; first compound 0.01 µM): 0.587
- relative viability (Bosutinib + Luminespib; first compound 0.03162 µM): 0.714
- relative viability (Bosutinib + Luminespib; first compound 0.1 µM): 0.694
- relative viability (Bosutinib + Luminespib; first compound 1 µM): 0.666
- relative viability (Bosutinib + Foretinib; first compound 0.01 µM): 0.903
- relative viability (Bosutinib + Foretinib; first compound 0.03162 µM): 0.994
- relative viability (Bosutinib + Foretinib; first compound 0.1 µM): 0.999
- relative viability (Bosutinib + Foretinib; first compound 1 µM): 1.05
- relative viability (Bosutinib + OSI-027; first compound 0.01 µM): 0.634
- relative viability (Bosutinib + OSI-027; first compound 0.03162 µM): 0.669
- relative viability (Bosutinib + OSI-027; first compound 0.1 µM): 0.702
- relative viability (Bosutinib + OSI-027; first compound 1 µM): 0.718
- relative viability (Bosutinib + Tozasertib; first compound 0.01 µM): 0.51
- relative viability (Bosutinib + Tozasertib; first compound 0.03162 µM): 0.449
- relative viability (Bosutinib + Tozasertib; first compound 0.1 µM): 0.526
- relative viability (Bosutinib + Tozasertib; first compound 1 µM): 0.517
- relative viability (Bosutinib + Dasatinib; first compound 0.01 µM): 0.289
- relative viability (Bosutinib + Dasatinib; first compound 0.03162 µM): 0.305
- relative viability (Bosutinib + Dasatinib; first compound 0.1 µM): 0.317
- relative viability (Bosutinib + Dasatinib; first compound 1 µM): 0.344
- relative viability (Bosutinib + Phenformin; first compound 0.01 µM): 0.565
- relative viability (Bosutinib + Phenformin; first compound 0.03162 µM): 0.68
- relative viability (Bosutinib + Phenformin; first compound 0.1 µM): 0.56
- relative viability (Bosutinib + Phenformin; first compound 1 µM): 0.643
- relative viability (Bosutinib + AZD7762; first compound 0.01 µM): 0.445
- relative viability (Bosutinib + AZD7762; first compound 0.03162 µM): 0.553
- relative viability (Bosutinib + AZD7762; first compound 0.1 µM): 0.459
- relative viability (Bosutinib + AZD7762; first compound 1 µM): 0.55
- relative viability (Bosutinib + Pemetrexed; first compound 0.01 µM): 0.783
- relative viability (Bosutinib + Pemetrexed; first compound 0.03162 µM): 0.799
- relative viability (Bosutinib + Pemetrexed; first compound 0.1 µM): 0.813
- relative viability (Bosutinib + Pemetrexed; first compound 1 µM): 0.841
- relative viability (Bosutinib + Decitabine; first compound 0.01 µM): 0.691
- relative viability (Bosutinib + Decitabine; first compound 0.03162 µM): 0.744
- relative viability (Bosutinib + Decitabine; first compound 0.1 µM): 0.726
- relative viability (Bosutinib + Decitabine; first compound 1 µM): 0.855
- relative viability (Bosutinib + Vorinostat; first compound 0.01 µM): 0.779
- relative viability (Bosutinib + Vorinostat; first compound 0.03162 µM): 0.787
- relative viability (Bosutinib + Vorinostat; first compound 0.1 µM): 0.859
- relative viability (Bosutinib + Vorinostat; first compound 1 µM): 0.828
- relative viability (Bosutinib + Olaparib; first compound 0.01 µM): 0.419
- relative viability (Bosutinib + Olaparib; first compound 0.03162 µM): 0.379
- relative viability (Bosutinib + Olaparib; first compound 0.1 µM): 0.464
- relative viability (Bosutinib + Olaparib; first compound 1 µM): 0.432
